# Assays:
# [1] = test system: cucumber powdery mildew; assay: Evaluation test for powdery mildew of cucumbers (cucumber leaf disc); format: in vivo; conditions: blotch area after 12 days, 25° C.
# Protocol: A fluorine-containing pyrimidine compound prepared in Examples 12, 13 or 15 was dissolved in acetone and diluted to a concentration of 500 ppm. Subsequently, a cucumber leaf disc (diameter 20 mm) was placed in a diluted acetone solution and completely wetted. The cucumber leaf disc was then placed so that the back surface of the cucumber leaf disc contacted a separately prepared plain agar medium, and air-dried. After air-drying, a cucumber powdery mildew spore suspension was evenly sprayed on the cucumber leaf disc and air-dried. The cucumber leaf disc was then allowed to stand in an incubator (25° C., illuminated for 12 hours), and after 12 days, the blotch area was examined to calculate the control value. The control value was calculated according to the following formula. In the following formula, “untreated” means that the cucumber leaf disc was wetted with only acetone as the test solution, and “untreated section” represents the corresponding section. A fluorine-containing pyrimidine compound prepared in Examples 12, 13 or 15 was dissolved in acetone and diluted to a concentration of 100 ppm. Subsequently, a cucumber leaf disc (diameter 20 mm) was placed in a diluted acetone solution and completely wetted. The cucumber leaf disc was placed so that the back surface of the cucumber leaf disc contacted a separately prepared plain agar medium, and air-dried. After air-drying, a cucumber powdery mildew spore suspension was evenly prayed on the cucumber leaf disc and air-dried. The cucumber leaf disc was then allowed to stand in an incubator (25° C., illuminated for 12 hours), and after 12 days, the blotch area was examined to calculate the control value. The control value was calculated according to the following formula. In the following formula, “untreated” means that the cucumber leaf disc was wetted with only acetone as the test solution, and “untreated section” represents the corresponding section. [formula] (Evaluation Test for Gray Mold (500 ppm))
# [2] = test system: Gray mold germs (Botrytis cinerea, strain 2018105); assay: Evaluation test for gray mold (mycelial growth on PDA medium); format: cell-based; conditions: final concentration 500 ppm in PDA medium; mycelia diameter after two days at 27° C.; average of 3
# Protocol: The fluorine-containing pyrimidine compound prepared in Example 1, 2, 3, 4, 12 or 16 was dissolved in DMSO and diluted to a concentration of 50000 ppm. To 3 ml of a dissolved PDA medium, 30 μL of diluted DMSO solution each was added and stirred with a pipette. The mixture was placed in a well of a 6-well plate and allowed to solidify (final concentration: 500 ppm, repeated 3 times each). Gray mold germs (Botrytis cinerea, strain 2018105) grown in a PDA medium was cut out together with the medium with a biopsy punch having a diameter of 0.4 cm, and placed on the center of the PDA medium in the 6-well plate containing the DMSO solution so as to be grown at 27° C. After two days, the diameters of mycelia were measured and the control value was calculated. The control value was calculated according to the following formula. In the formula described below, “untreated” represents PDA medium to which only DMSO was added as the test solution. [formula]
structure (smiles),measurement,setting,value
"COc1nc(-c2ccccn2)nc(Nc2ccc(C)cc2)c1C(F)(F)F [Example 15, 6-methoxy-N-(4-methylphenyl)-2-(2-pyridyl)-5-(trifluoromethyl)-4-pyrimidinamine]",Control value,[1]; 100 ppm in acetone,100.0
same,Control value,[1]; 500 ppm in acetone,100.0
"COc1nc(-c2ccccn2)nc(Nc2ccc(C)cc2C)c1C(F)(F)F [Example 12, 6-methoxy-N-(2,4-dimethylphenyl)-2-(2-pyridyl)-5-(trifluoromethyl)-4-pyrimidinamine]",Control value,[2],94.3
same,Control value,[1]; 100 ppm in acetone,91.8
same,Control value,[1]; 500 ppm in acetone,100.0
"COc1nc(-c2ccccn2)nc(Nc2cccc(C)c2)c1C(F)(F)F [Example 2, 6-methoxy-N-(3-methylphenyl)-2-(2-pyridyl)-5-(trifluoromethyl)-4-pyrimidinamine]",Control value,[2],86.8
"COc1nc(-c2ccccn2)nc(Nc2ccccc2)c1C(F)(F)F [Example 1, 6-methoxy-N-phenyl-2-(2-pyridyl)-5-(trifluoromethyl)-4-pyrimidinamine]",Control value,[2],90.5
"COc1nc(-c2ccccn2)nc(Nc2ccc(Cl)cc2)c1C(F)(F)F [Example 13, N-(4-chlorophenyl)-6-methoxy-2-(2-pyridyl)-5-(trifluoromethyl)-4-pyrimidinamine]",Control value,[1]; 100 ppm in acetone,80.0
same,Control value,[1]; 500 ppm in acetone,98.8
"COc1nc(-c2ccccn2)nc(Nc2ccc(C)c(C)c2)c1C(F)(F)F [Example 4, 6-methoxy-N-(3,4-dimethylphenyl)-2-(2-pyridyl)-5-(trifluoromethyl)-4-pyrimidinamine]",Control value,[2],86.8
"FC(F)(F)c1c(Cl)nc(-c2ccccn2)nc1Nc1ccccc1 [Example 16, 6-chloro-N-phenyl-2-(2-pyridyl)-5-(trifluoromethyl)-4-pyrimidinamine]",Control value,[2],92.4
"CCCCc1ccc(Nc2nc(-c3ccccn3)nc(OC)c2C(F)(F)F)cc1 [Example 3, N-(4-butylphenyl)-6-methoxy-2-(2-pyridyl)-5-(trifluoromethyl)-4-pyrimidinamine]",Control value,[2],76.9
